Source: the NIST ThermoML archive (doi:10.1016/j.jct.2009.01.014)
“And” between values parts separate entries of the source, which are not always exact repeats. Equal entries are not always repeated.

Assay: molar heat capacity at constant pressure
Conditions: 101.33 kPa, Vacuum adiabatic calorimetry

[Al+3].[Al+3].[Co+2].[O-2].[O-2].[O-2].[O-2] [aluminium cobalt oxide]
Conditions | molar heat capacity at constant pressure
4.72 K, Crystal 2 | 0.13 J/K/mol
5 K, Crystal 2 | 0.187 J/K/mol
5.71 K, Crystal 2 | 0.32 J/K/mol
6 K, Crystal 2 | 0.323 J/K/mol
6.45 K, Crystal 2 | 0.6 J/K/mol
6.71 K, Crystal 2 | 0.26 J/K/mol
6.88 K, Crystal 2 | 0.73 J/K/mol
7 K, Crystal 2 | 0.905 J/K/mol
7.21 K, Crystal 2 | 0.74 J/K/mol
7.25 K, Crystal 2 | 1.59 J/K/mol
7.46 K, Crystal 2 | 0.83 J/K/mol
7.65 K, Crystal 2 | 2.56 J/K/mol
7.66 K, Crystal 2 | 0.96 J/K/mol
7.81 K, Crystal 2 | 1.14 J/K/mol
7.85 K, Crystal 2 | 0.98 J/K/mol
7.94 K, Crystal 2 | 1.38 J/K/mol
8 K, Crystal 2 | 3.8 J/K/mol and 2.02 J/K/mol
8.05 K, Crystal 2 | 1.67 J/K/mol
8.17 K, Crystal 2 | 2 J/K/mol
8.29 K, Crystal 2 | 2.32 J/K/mol
8.32 K, Crystal 2 | 6.21 J/K/mol
8.47 K, Crystal 2 | 1.8 J/K/mol
8.62 K, Crystal 2 | 3.37 J/K/mol
8.66 K, Crystal 2 | 6.33 J/K/mol
8.71 K, Crystal 2 | 5.19 J/K/mol and 7.23 J/K/mol
8.98 K, Crystal 2 | 3.72 J/K/mol
9.28 K, Crystal 1 | 4.54 J/K/mol
9.32 K, Crystal 1 | 4.26 J/K/mol
9.33 K, Crystal 1 | 3.86 J/K/mol
9.95 K, Crystal 1 | 4.26 J/K/mol
10 K, Crystal 1 | 4.27 J/K/mol
10.45 K, Crystal 1 | 4.03 J/K/mol
10.5 K, Crystal 1 | 4.18 J/K/mol
10.76 K, Crystal 1 | 4.31 J/K/mol
11.38 K, Crystal 1 | 4.5 J/K/mol
11.87 K, Crystal 1 | 4.28 J/K/mol
12.04 K, Crystal 1 | 4.33 J/K/mol
12.41 K, Crystal 1 | 4.39 J/K/mol
12.96 K, Crystal 1 | 4.32 J/K/mol
13.36 K, Crystal 1 | 4.4 J/K/mol
13.69 K, Crystal 1 | 4.41 J/K/mol
13.73 K, Crystal 1 | 4.37 J/K/mol
14.57 K, Crystal 1 | 4.32 J/K/mol
14.84 K, Crystal 1 | 4.36 J/K/mol
15 K, Crystal 1 | 4.19 J/K/mol
15.02 K, Crystal 1 | 4.19 J/K/mol
15.35 K, Crystal 1 | 4.45 J/K/mol
16.08 K, Crystal 1 | 4.3 J/K/mol
16.27 K, Crystal 1 | 4.22 J/K/mol
16.99 K, Crystal 1 | 4.37 J/K/mol
17.59 K, Crystal 1 | 4.22 J/K/mol
17.64 K, Crystal 1 | 4.2 J/K/mol
18.61 K, Crystal 1 | 4.3 J/K/mol
18.8 K, Crystal 1 | 4.15 J/K/mol
19.9 K, Crystal 1 | 4.28 J/K/mol
20 K, Crystal 1 | 4.12 J/K/mol
20.2 K, Crystal 1 | 4.24 J/K/mol
20.34 K, Crystal 1 | 4.12 J/K/mol
20.92 K, Crystal 1 | 4.12 J/K/mol
21.76 K, Crystal 1 | 4.2 J/K/mol
21.88 K, Crystal 1 | 4.24 J/K/mol
22.65 K, Crystal 1 | 4.13 J/K/mol
23.29 K, Crystal 1 | 4.19 J/K/mol
24.79 K, Crystal 1 | 4.18 J/K/mol
24.8 K, Crystal 1 | 4.22 J/K/mol
25 K, Crystal 1 | 4.19 J/K/mol
26.22 K, Crystal 1 | 4.35 J/K/mol
26.96 K, Crystal 1 | 4.24 J/K/mol
27.5 K, Crystal 1 | 4.17 J/K/mol
28.68 K, Crystal 1 | 4.27 J/K/mol
29.17 K, Crystal 1 | 4.26 J/K/mol
29.76 K, Crystal 1 | 4.34 J/K/mol
30 K, Crystal 1 | 4.35 J/K/mol
31.39 K, Crystal 1 | 4.52 J/K/mol
31.42 K, Crystal 1 | 4.55 J/K/mol
33.59 K, Crystal 1 | 4.79 J/K/mol
34.14 K, Crystal 1 | 4.77 J/K/mol
35 K, Crystal 1 | 4.98 J/K/mol
35.82 K, Crystal 1 | 5.1 J/K/mol
36.43 K, Crystal 1 | 5.08 J/K/mol
38.1 K, Crystal 1 | 5.31 J/K/mol
38.48 K, Crystal 1 | 5.3 J/K/mol
40 K, Crystal 1 | 5.71 J/K/mol
40.31 K, Crystal 1 | 5.7 J/K/mol
40.44 K, Crystal 1 | 5.8 J/K/mol
42.02 K, Crystal 1 | 6.02 J/K/mol
42.79 K, Crystal 1 | 6.32 J/K/mol
43.71 K, Crystal 1 | 6.48 J/K/mol
45 K, Crystal 1 | 6.87 J/K/mol
45.17 K, Crystal 1 | 6.92 J/K/mol
45.43 K, Crystal 1 | 6.93 J/K/mol
47.17 K, Crystal 1 | 7.42 J/K/mol
47.58 K, Crystal 1 | 7.59 J/K/mol
48.91 K, Crystal 1 | 7.98 J/K/mol
50 K, Crystal 1 | 8.31 J/K/mol
50.03 K, Crystal 1 | 8.32 J/K/mol
50.67 K, Crystal 1 | 8.52 J/K/mol
52.44 K, Crystal 1 | 9.07 J/K/mol
52.51 K, Crystal 1 | 9.11 J/K/mol
54.22 K, Crystal 1 | 9.63 J/K/mol
55 K, Crystal 1 | 9.96 J/K/mol
55.03 K, Crystal 1 | 9.97 J/K/mol
56.02 K, Crystal 1 | 10.33 J/K/mol
57.57 K, Crystal 1 | 10.87 J/K/mol
57.82 K, Crystal 1 | 10.96 J/K/mol
59.64 K, Crystal 1 | 11.67 J/K/mol
60 K, Crystal 1 | 11.79 J/K/mol
60.15 K, Crystal 1 | 11.85 J/K/mol
61.46 K, Crystal 1 | 12.35 J/K/mol
62.75 K, Crystal 1 | 12.88 J/K/mol
63.3 K, Crystal 1 | 13.11 J/K/mol
65 K, Crystal 1 | 13.79 J/K/mol
65.14 K, Crystal 1 | 13.85 J/K/mol
65.38 K, Crystal 1 | 13.94 J/K/mol
66.99 K, Crystal 1 | 14.6 J/K/mol
68.03 K, Crystal 1 | 15.06 J/K/mol
68.85 K, Crystal 1 | 15.41 J/K/mol
70 K, Crystal 1 | 15.92 J/K/mol
70.7 K, Crystal 1 | 16.23 J/K/mol
70.71 K, Crystal 1 | 16.22 J/K/mol
72.59 K, Crystal 1 | 17.07 J/K/mol
73.39 K, Crystal 1 | 17.44 J/K/mol
74.46 K, Crystal 1 | 17.93 J/K/mol
75 K, Crystal 1 | 18.18 J/K/mol
76.1 K, Crystal 1 | 18.69 J/K/mol
76.35 K, Crystal 1 | 18.81 J/K/mol
78.23 K, Crystal 1 | 19.67 J/K/mol
78.83 K, Crystal 1 | 19.98 J/K/mol
80 K, Crystal 1 | 20.58 J/K/mol
80.13 K, Crystal 1 | 20.6 J/K/mol
81.57 K, Crystal 1 | 21.31 J/K/mol
82.03 K, Crystal 1 | 21.53 J/K/mol
83.93 K, Crystal 1 | 22.47 J/K/mol
84.33 K, Crystal 1 | 22.66 J/K/mol
85 K, Crystal 1 | 23 J/K/mol
85.84 K, Crystal 1 | 23.42 J/K/mol
86.76 K, Crystal 1 | 23.89 J/K/mol
87.1 K, Crystal 1 | 24.07 J/K/mol
87.75 K, Crystal 1 | 24.35 J/K/mol
89.66 K, Crystal 1 | 25.35 J/K/mol
89.88 K, Crystal 1 | 25.48 J/K/mol
90 K, Crystal 1 | 25.54 J/K/mol
90.38 K, Crystal 1 | 25.72 J/K/mol
91.58 K, Crystal 1 | 26.35 J/K/mol
92.68 K, Crystal 1 | 26.93 J/K/mol
93.5 K, Crystal 1 | 27.35 J/K/mol
94.03 K, Crystal 1 | 27.61 J/K/mol
95 K, Crystal 1 | 28.14 J/K/mol
95.42 K, Crystal 1 | 28.36 J/K/mol
95.49 K, Crystal 1 | 28.4 J/K/mol
97.35 K, Crystal 1 | 29.35 J/K/mol
97.7 K, Crystal 1 | 29.56 J/K/mol
98.31 K, Crystal 1 | 29.91 J/K/mol
99.28 K, Crystal 1 | 30.41 J/K/mol
100 K, Crystal 1 | 30.76 J/K/mol
101.14 K, Crystal 1 | 31.29 J/K/mol
101.4 K, Crystal 1 | 31.39 J/K/mol
105 K, Crystal 1 | 33.58 J/K/mol
105.11 K, Crystal 1 | 33.64 J/K/mol
108.84 K, Crystal 1 | 35.84 J/K/mol
110 K, Crystal 1 | 36.47 J/K/mol
112.59 K, Crystal 1 | 37.85 J/K/mol
116.35 K, Crystal 1 | 39.89 J/K/mol
118.19 K, Crystal 1 | 40.87 J/K/mol
120 K, Crystal 1 | 41.53 J/K/mol
120.13 K, Crystal 1 | 41.61 J/K/mol
121.04 K, Crystal 1 | 42.24 J/K/mol
123.91 K, Crystal 1 | 44.18 J/K/mol and 44.16 J/K/mol
126.79 K, Crystal 1 | 45.8 J/K/mol
127.71 K, Crystal 1 | 46.35 J/K/mol
129.67 K, Crystal 1 | 47.46 J/K/mol
130 K, Crystal 1 | 47.65 J/K/mol
131.52 K, Crystal 1 | 48.53 J/K/mol
132.55 K, Crystal 1 | 49.08 J/K/mol
135.33 K, Crystal 1 | 50.7 J/K/mol
135.44 K, Crystal 1 | 50.72 J/K/mol
138.34 K, Crystal 1 | 52.33 J/K/mol
139.16 K, Crystal 1 | 52.77 J/K/mol
140 K, Crystal 1 | 53.26 J/K/mol
141.23 K, Crystal 1 | 53.98 J/K/mol
142.99 K, Crystal 1 | 55.02 J/K/mol
144.14 K, Crystal 1 | 55.61 J/K/mol
